Measurements: publication PMC6897945, “CytA, a reductase in the cytorhodin biosynthesis pathway, inactivates anthracycline drugs in Streptomyces” (Communications Biology, 2019)
pIC50: −log10 of the molar value. In brackets after ≈: the same amount, converted by molar mass. Where two headings read alike, the source gives them in different places.

How the values were obtained:
[1] = system: B. subtilis BS01; test: Antibacterial activity, broth dilution MIC; format: cell-based; settings: Bacillus subtilis
Description: (§1) The antibacterial activities of compounds 1–13 were assessed using twofold serial dilutions of antibacterial agents in MH broth, according to previously reported standard methods provided by Clinical and Laboratory Standards Institute (CLSI)[30]. These compounds were tested for their antibacterial activities against Bacillus subtilis BS01, Staphyloccocus aureus ATCC 29213, Staphyloccocus aureus 745524, Bacillus thuringiensis BT01, and Enterococcus faecalis ATCC 29212 using a broth dilution method.

[2] = system: B. thuringiensis BT01; test: Antibacterial activity, broth dilution MIC; format: cell-based; settings: Bacillus thuringiensis
Description: as §1

[3] = system: E. faecalis ATCC 29212; test: Antibacterial activity, broth dilution MIC; format: cell-based; settings: Enterococcus faecalis
Description: as §1

[4] = system: Staphylococcus aureus 745524; test: Antibacterial activity, broth dilution MIC; format: cell-based
Description: as §1

[5] = system: Staphylococcus aureus ATCC 29213; test: Antibacterial activity, broth dilution MIC; format: cell-based
Description: as §1

[6] = system: CytA; test: Enzyme kinetics of CytA (formation of deglycosylation products, anaerobic); format: biochemical, Streptomyces sp. SCSIO 1666; settings: substrate of CytA; 0.5 μM CytA, 20 μM NADH, anaerobic
Description: Enzymatic reactions were carried out under anaerobic conditions in an anaerobic workstation (Don Whitley Scientific A45) containing a gas phase of N2/H2/CO2 (80:10: 10%, by vol.). ^1H, ^13C, and 2D (COSY, HMQC, HMBC and NOESY) NMR spectra were recorded at 25 °C with an Avance 700 MHz spectrometer instruments (Bruker). High-resolution mass spectra were obtained with a Maxis quadrupole-time-of-flight mass spectrometer (Bruker).
To validate the in vitro biochemical activities of CytA, we overexpressed and purified this enzyme as a soluble N-terminally His6-tagged protein from E. coli (Fig. 2a). Tris-Cl buffer was made O2 free by boiling, followed by cooling under N2 flow; NADH stock solution (dissolved in Tris-Cl), substrate stock solution (dissolved in DMSO), and enzyme solution (dissolved in Tris-Cl supplemented with 10% glycerin) were subjected to O2 eliminating process in the anaerobic workstations for at least two cycles (40 min for one cycle). CytA enzymatic activity was tested in 50 μL volume containing 50 mM Tris-Cl (pH 8.0), 25 μM substrate, 0.5 μM CytA, and 20 μM NADH, at 37 °C for 30 min. The reaction was quenched with the addition to 2 volumes MeOH. After centrifugation to remove protein, supernatants were analyzed with Agilent HPLC equipment using a Phenomenex Prodigy ODS column S5 (150 × 4.60 mm, 5 μ) and UV detection at 254 and 500 nm. Samples were eluted with a gradient elution of phase A containing 0.1% TFA in ddH2O and phase B containing 100% acetonitrile, at a flow rate of 1 mL/min.
Kinetic analyses of CytA with putative substrates 6–10, daunorubicin, doxorubicin, idarubicin, epirubicin and pirarubicin, involved a reaction volume of 20 μL consisting of 50 mM Tris-Cl (pH 8.0), 0.5 μM CytA, 20 μM NADH, […]
All assays were performed in triplicate and Km and Vmax values were calculated on the basis of curve fitting to the Michaelis-Menten equation: v = Vmax *[S]/(Km + [S]) (Supplementary Fig. 7).
For kinetics of CytA, Origin 9.0 (OriginLab Co.) was used to analyze on the basis of curve fitting to the Michaelis-Menten equation. Experiments were performed in triplicate independently. For antibacterial activity, experiments were performed in triplicate using 96-well plates.

[7] = Cytotoxic activity, MTT method; format: cell-based; settings: human
Description: (§2) All data were obtained in triplicate and are presented as means.

[8] = system: A549 human lung cancer cell line; test: Cytotoxic activity, MTT method; format: cell-based; settings: A549, read-out: Cytotoxic activities IC50, A549
Description: as §2

[9] = system: HeLa human cervical carcinoma cell line; test: Cytotoxic activity, MTT method; format: cell-based; settings: read-out: Cytotoxic activities IC50, HeLa
Description: as §2

[10] = system: HepG2 human hepatocellular carcinoma cell line; test: Cytotoxic activity, MTT method; format: cell-based; settings: HepG2, read-out: Cytotoxic activities IC50, HepG2
Description: as §2

[11] = system: MCF-7 human breast adenocarcinoma cell line; test: Cytotoxic activity, MTT method; format: cell-based; settings: MCF7, read-out: Cytotoxic activities IC50, MCF-7
Description: as §2

[12] = system: MDA-MB-231 human triple negative breast adenocarcinoma cell line; test: Cytotoxic activity, MTT method; format: cell-based; settings: MDA-MB-231, read-out: Cytotoxic activities IC50, MDA-MB-231
Description: as §2

[13] = system: MDA-MB-468 human triple negative breast adenocarcinoma cell line; test: Cytotoxic activity, MTT method; format: cell-based; settings: MDA-MB-468, read-out: Cytotoxic activities IC50, MDA-MB-468
Description: as §2

[14] = system: RKO human colorectal carcinoma cell line; test: Cytotoxic activity, MTT method; format: cell-based; settings: read-out: Cytotoxic activities IC50, RKO
Description: as §2

[15] = B. subtilis BS01, triplicate, read-out: MIC values, BS
[16] = B. thuringiensis BT01, triplicate, read-out: MIC values, BT
[17] = ATCC29212, E. faecalis ATCC 29212, triplicate, read-out: MIC values, EF
[18] = Staphylococcus aureus 745524, triplicate, read-out: MIC values, SA2
[19] = ATCC29213, Staphylococcus aureus ATCC 29213, triplicate, read-out: MIC values, SA1
[20] = Huvec-12 normal cell line, read-out: Cytotoxic activities IC50, Huvec-12
[21] = L02 normal cell line, read-out: Cytotoxic activities IC50, L02

Compound | Km [6] [µM] | kcat [6] [s⁻¹] | pIC50 [8] | pIC50 [9] | pIC50 [10] | pIC50 [11] | pIC50 [12] | pIC50 [13] | pIC50 [14] | other results
CC1(C)S[C@@H]2[C@H](NC(=O)[C@H](N)c3ccccc3)C(=O)N2[C@H]1C(=O)O [Amp, Ampicillin, reference compound] |  |  |  |  |  |  |  |  |  | MIC [1, 15]: 4 µg/mL (≈ 11.4 µM); MIC [2, 16]: 4 µg/mL (≈ 11.4 µM); MIC [3, 17]: 2 µg/mL (≈ 5.72 µM); MIC [4, 18]: 8 µg/mL (≈ 22.9 µM); MIC [5, 19]: 4 µg/mL (≈ 11.4 µM)
COc1cccc2c1C(=O)c1c(O)c3c(c(O)c1C2=O)C[C@@](O)(C(C)=O)C[C@@H]3O[C@H]1C[C@H](N)[C@H](O)[C@H](C)O1 [Compound 22, daunorubicin, reference compound] | 36.3 | 0.00967 |  |  |  |  |  |  |  | 
COc1cccc2c1C(=O)c1c(O)c3c(c(O)c1C2=O)C[C@@](O)(C(=O)CO)C[C@@H]3O[C@H]1C[C@H](N)[C@@H](O)[C@H](C)O1 [Compound 25, epirubicin, reference compound] | 38.6 | 0.00883 |  |  |  |  |  |  |  | 
CC(=O)[C@]1(O)Cc2c(O)c3c(c(O)c2[C@@H](O[C@H]2C[C@H](N)[C@H](O)[C@H](C)O2)C1)C(=O)c1ccccc1C3=O [Compound 24, idarubicin, reference compound] | 28.5 | 0.00733 |  |  |  |  |  |  |  | 
CC[C@@]1(O[C@H]2C[C@H](N(C)C)[C@H](O)[C@H](C)O2)CCc2c(O)c3c(c(O)c2[C@H]1O[C@H]1C[C@H](N(C)C)[C@H](O[C@H]2C[C@H](O)[C@H](O[C@H]4CC[C@H](O)[C@H](C)O4)[C@H](C)O2)[C@H](C)O1)C(=O)c1cccc(O)c1C3=O [Compound 2, cytorhodin Y] |  |  | 5.14 | 5.49 | 5.21 | 5.00 | 4.76 | 4.78 | 4.93 | MIC [1, 15]: 1 µg/mL (≈ 1.08 µM); MIC [2, 16]: 4 µg/mL (≈ 4.31 µM); MIC [3, 17]: 4 µg/mL (≈ 4.31 µM); MIC [4, 18]: 1 µg/mL (≈ 1.08 µM); MIC [5, 19]: 2 µg/mL (≈ 2.15 µM); pIC50 [7, 20]: 5.33; pIC50 [7, 21]: 5.35
CC[C@@]1(O[C@H]2C[C@H](N(C)C)[C@H](O)[C@H](C)O2)CCc2c(O)c3c(c(O)c2[C@H]1O[C@H]1C[C@H](N(C)C)[C@H](O[C@H]2CC[C@H](O[C@H]4CC[C@H](O)[C@H](C)O4)[C@H](C)O2)[C@H](C)O1)C(=O)c1cccc(O)c1C3=O [Compound 1, cytorhodin X] |  |  | 5.47 | 5.69 | 5.52 | 4.90 | 4.73 | 4.67 | 4.95 | MIC ([1]; BS01, read-out: MIC values, BS): 2 µg/mL (≈ 2.19 µM); MIC ([2]; BT01, read-out: MIC values, BT): 4 µg/mL (≈ 4.38 µM); MIC ([3]; ATCC29212, read-out: MIC values, EF): 2 µg/mL (≈ 2.19 µM); MIC ([4]; Staphylococcus aureus, 745524, read-out: MIC values, SA2): 2 µg/mL (≈ 2.19 µM); MIC ([5]; Staphylococcus aureus, ATCC29213, read-out: MIC values, SA1): 2 µg/mL (≈ 2.19 µM); pIC50 [7, 20]: 5.37; pIC50 [7, 21]: 5.46
COc1cccc2c1C(=O)c1c(O)c3c(c(O)c1C2=O)C[C@@](O)(C(=O)CO)C[C@@H]3O[C@H]1C[C@H](N)[C@H](O)[C@H](C)O1 [Compound 23, doxorubicin, reference compound] | 31 | 0.0102 | 5.64 | 6.08 | 6.39 | 6.05 | 4.77 | 5.68 | 5.84 | pIC50 ([7]; Huvec-12 normal umbilical vein endothelial cells, Huvec-12 normal cell line, read-out: Cytotoxic activities IC50, Huvec-12): 5.20; pIC50 ([7]; L02 normal hepatic cells, L02 normal cell line, read-out: Cytotoxic activities IC50, L02): 5.12
